Assay results as given in US11072585B2 (PharmAkea, Inc., priority 2015, dated 2021).
Structures can show the parent of a compound that is named as a salt.

How the values were obtained:
human LOXL2 = human LOXL2 (Homo sapiens (Human), UniProt Q9Y4K0); experiment: Human LOXL2 amine oxidase activity assay (Amplex Red); assay type: biochemical; settings: concentrated conditioned media from CHO cells stably expressing human LOXL2; 2 h at 37° C. with compound; DAP substrate
How it was run: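 Concentrated conditioned medium from CHO cells stably expressing human LOXL2 was preincubated with compound for 2 h at 37 °C in 50 mM borate, pH 8. 1,5-diaminopentane substrate and Amplex Red/HRP were then added. Fluorescence (544/590) was read kinetically every 2 min for 1 h, with activity taken from the linear slope.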

[1] = system: bleomycin-induced lung fibrosis in C57Bl/6 male mice; experiment: Mouse oropharyngeal bleomycin model of lung fibrosis; assay type: in vivo; settings: for efficacy in bleomycin lung fibrosis model, prophylactic dosing: dosed prophylactically at 60 mg/kg p.o.; for efficacy in bleomycin lung fibrosis model, therapeutic dosing: dosed therapeutically at 60 mg/kg p.o.
Protocol: Example B-3: Mouse Oropharyngeal Bleomycin Model of Lung Fibrosis
Lung fibrosis is induced in C57Bl/6 male mice by administering bleomycin (0.1-4 U/kg) via oropharyngeal instillation. Mice are either pretreated with vehicle or test compound (1 day to 1 hour) orally, intraperitoneally, intravenously or subcutaneously before bleomycin installation (prophylactic dosing) or 7-14 days post bleomycin instillation (therapeutic dosing). The route and frequency of dosing are based on previously determined pharmacokinetic properties for the LOXL2 inhibitor in mouse. After bleomycin instillation animals are monitored daily for weight loss and clinical signs for 14-28 days prior to sacrifice. Animals are euthanized at study termination and weighed and blood (for isolation of plasma) and bronchoalveolar lavage are collected and frozen for subsequent analyses. Lungs are removed, weighed, then either inflated and fixed by instillation of 10% formalin and prepared for histological examination or homogenized in 1 ml PBS for collagen determination using a hydroxyproline assay. For histological examination, lung slices are stained with Masson's trichrome or Picro-Sirius red to measure cross-linked collagen as an indicator of fibrosis and an Ashcroft score of lung fibrotic and inflammatory damage determined. In addition, immunohistochemistry of fibrotic proteins such as a-smooth muscle actin can be recorded. For lung hydroxyproline content, 0.5 ml of the lung homogenate is removed and added to 0.5 ml 12 N HCl and the samples heated at 120° C. overnight. After the acid hydrolysis, 25-100 μl of the supernatant is dried down, resuspended in 25 μl water and the hydroxyproline content determined by the addition of 0.5 ml Chloramine T solution (140 mg Chloramine T in 6.5 ml ddH2O+1 ml n-propanol+2.5 ml 1M sodium acetate) and incubation at room temperature for 20 min. After the incubation, 0.5 ml Erlich's solution (1.48 g of 4-(dimethylamino(benzaldehyde) in 7 ml n-propanol+2.88 ml 60% perchloric acid and 0.12 ml ddH2O) is added and incubated at 65° C. for 15 min before reading the absorbance at 550 nm. The concentration of hydroxyproline in each […] is determined from a hydroxyproline (purchased from Sigma) standard curve.

human LOXL2, sequence (Q9Y4K0 26-774): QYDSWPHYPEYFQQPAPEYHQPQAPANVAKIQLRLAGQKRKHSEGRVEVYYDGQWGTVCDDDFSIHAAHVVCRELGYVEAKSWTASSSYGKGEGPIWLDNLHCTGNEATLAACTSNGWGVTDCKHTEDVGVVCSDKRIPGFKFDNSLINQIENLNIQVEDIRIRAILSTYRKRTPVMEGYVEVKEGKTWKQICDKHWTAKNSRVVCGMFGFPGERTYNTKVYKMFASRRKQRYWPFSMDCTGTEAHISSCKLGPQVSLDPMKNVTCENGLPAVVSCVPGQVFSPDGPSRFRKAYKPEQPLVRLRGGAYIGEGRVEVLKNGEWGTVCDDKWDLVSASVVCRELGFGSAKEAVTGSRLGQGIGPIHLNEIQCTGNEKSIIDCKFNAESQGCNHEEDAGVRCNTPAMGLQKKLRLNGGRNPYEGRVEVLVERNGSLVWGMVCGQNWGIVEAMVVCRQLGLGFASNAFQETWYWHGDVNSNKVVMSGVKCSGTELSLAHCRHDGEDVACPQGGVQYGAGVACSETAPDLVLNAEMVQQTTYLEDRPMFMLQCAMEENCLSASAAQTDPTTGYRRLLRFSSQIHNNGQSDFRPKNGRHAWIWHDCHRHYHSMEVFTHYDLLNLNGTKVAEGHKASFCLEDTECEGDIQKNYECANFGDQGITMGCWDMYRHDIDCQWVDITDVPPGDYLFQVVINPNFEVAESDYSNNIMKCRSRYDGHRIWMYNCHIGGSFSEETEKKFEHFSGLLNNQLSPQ

Compound	IC50 (human LOXL2) [nM]	efficacy in bleomycin lung fibrosis model, prophylactic dosing [1]	efficacy in bleomycin lung fibrosis model, therapeutic dosing [1]
Cl.NCc1cc(Oc2cccc(C(=O)NCCn3cnnn3)c2)nc(C(F)(F)F)c1 [Compound 1-15, N-(2-(1H-Tetrazol-1-yl)ethyl)-3-((4-(aminomethyl)-6-(trifluoromethyl)pyridin-2-yl)oxy)benzamide hydrochloride]	< 300	efficacious	
Cl.NCc1cc(Oc2cccc(C(=O)N3C[C@@H](O)[C@H](F)C3)c2)nc(C(F)(F)F)c1 (stereo in doubt) [Compound 1-19, Racemic-trans-(3-((4-(aminomethyl)-6-(trifluoromethyl)pyridin-2-yl)oxy)phenyl)(3-fluoro-4-hydroxypyrrolidin-1-yl)methanone hydrochloride]	< 300	efficacious	efficacious
C#C[C@@H](CC(=O)O)NC(=O)c1cccc(Oc2cc(CN)cc(C(F)(F)F)n2)c1 [Compound 1-223, (R)-3-(3-((4-(aminomethyl)-6-(trifluoromethyl)pyridin-2-yl)oxy)benzamido)pent-4-ynoic acid hydrochloride]	300 to 1000		
Cl.NCc1cc(Oc2cccc(C(=O)Nc3ccccc3)c2)nc(C(F)(F)F)c1 [Compound 1-7, 3-((4-(Aminomethyl)-6-(trifluoromethyl)pyridin-2-yl)oxy)-N-phenylbenzamide hydrochloride]	< 300	efficacious	
CS(=O)(=O)CCNC(=O)c1cccc(Oc2cc(CN)cc(C(F)(F)F)n2)c1.Cl [Compound 1-30, 3-((4-(Aminomethyl)-6-(trifluoromethyl)pyridin-2-yl)oxy)-N-(2-(methylsulfonyl)ethyl)benzamide hydrochloride]	< 300	efficacious	
NCc1cc(NC(=O)c2cccc(C(=O)O)c2)nc(C(F)(F)F)c1 [Compound 1-239, 3-((4-(Aminomethyl)-6-(trifluoromethyl)pyridin-2-yl)carbamoyl)benzoic acid trifluoroacetate]	< 300		
C#C[C@H](CC(=O)O)NC(=O)c1cccc(Oc2cc(CN)cc(C(F)(F)F)n2)c1 [Compound 1-221, (S)-3-(3-((4-(aminomethyl)-6-(trifluoromethyl)pyridin-2-yl)oxy)benzamido)pent-4-ynoic acid]	300 to 1000		
CCOC(=O)CN1C(=O)CCc2c(Oc3cc(CN)cc(C(F)(F)F)n3)cccc21 [Compound 1-235, Ethyl 2-(5-((4-(aminomethyl)-6-(trifluoromethyl)pyridin-2-yl)oxy)-2-oxo-3,4-dihydroquinolin-1(2H)-yl)acetate]	300 to 1000		
NCc1cc(Oc2cccc(C(=O)Nc3ccccc3N)c2)nc(C(F)(F)F)c1 [Compound 1-225, 3-((4-(Aminomethyl)-6-(trifluoromethyl)pyridin-2-yl)oxy)-N-(2-aminophenyl)benzamide hydrochloride]	< 300		
NCc1cc(Oc2cncc(C(=O)N3C[C@@H](O)[C@H](F)C3)c2)nc(C(F)(F)F)c1 (racemic) [Compound 1-55, Racemic-trans-(5-((4-(aminomethyl)-6-(trifluoromethyl)pyridin-2-yl)oxy)pyridin-3-yl)(-3-fluoro-4-hydroxypyrrolidin-1-yl)methanone hydrochloride]	< 300		
NCc1cc(Oc2cccc(C(=O)NCc3ccc(F)cc3)c2)nc(C(F)(F)F)c1 [Compound 1-9, 3-((4-(Aminomethyl)-6-(trifluoromethyl)pyridin-2-yl)oxy)-N-(4-fluorobenzyl)benzamide hydrochloride]	< 300		
NCc1cc(Oc2cccc3c2CCC(=O)N3CCO)nc(C(F)(F)F)c1 [Compound 1-60, 5-((4-(Aminomethyl)-6-(trifluoromethyl)pyridin-2-yl)oxy)-1-(2-hydroxyethyl)-3,4-dihydroquinolin-2(1H)-one hydrochloride]	300 to 1000		
NCc1cc(Oc2cccc3[nH]ccc23)nc(C(F)(F)F)c1 [Compound 1-58, (2-((1H-Indol-4-yl)oxy)-6-(trifluoromethyl)pyridin-4-yl)methanamine]	< 300		
Cc1cc(=O)n(Cc2cc(CN)cc(C(F)(F)F)n2)c(=O)n1Cc1ccccc1 [Compound 1-134, 3-((4-(Aminomethyl)-6-(trifluoromethyl)pyridin-2-yl)methyl)-1-benzyl-6-methylpyrimidine-2,4(1H,3H)-dione hydrochloride]	< 300		
Cc1nnc(C(=O)N2CCC[C@H](Oc3cc(CN)cc(C(F)(F)F)n3)C2)o1 [Compound 1-51, (S)-(3-((4-(Aminomethyl)-6-(trifluoromethyl)pyridin-2-yl)oxy)piperidin-1-yl)(5-methyl-1,3,4-oxadiazol-2-yl)methanone trifluoroacetate]	300 to 1000		

Continued, in another order:

IC50 (human LOXL2) [nM]	Compound	efficacy in bleomycin lung fibrosis model, prophylactic dosing [1]	efficacy in bleomycin lung fibrosis model, therapeutic dosing [1]
< 300	Cl.NCc1cc(Oc2cccc3c2CCC(=O)N3)nc(C(F)(F)F)c1 [Compound 1-59, 5-((4-(Aminomethyl)-6-(trifluoromethyl)pyridin-2-yl)oxy)-3,4-dihydroquinolin-2(1H)-one hydrochloride]	efficacious	
< 300	Cl.NCc1cc(Oc2cccc(C(=O)N3C[C@H](O)[C@@H](F)C3)c2)nc(C(F)(F)F)c1 (stereo in doubt) [Compound 1-20, (S,S)-trans-(3-((4-(Aminomethyl)-6-(trifluoromethyl)pyridin-2-yl)oxy)phenyl)(3-fluoro-4-hydroxypyrrolidin-1-yl)methanone hydrochloride]	efficacious	efficacious
< 300	NCc1cc(Oc2cccc(C(=O)NCCCCc3cn(-c4ccccc4)nn3)c2)nc(C(F)(F)F)c1 [Compound 1-217, 3-((4-(Aminomethyl)-6-(trifluoromethyl)pyridin-2-yl)oxy)-N-(4-(1-phenyl-1H-1,2,3-triazol-4-yl)butyl)benzamide hydrochloride]		
< 300	NCc1cc(Oc2cccc(C(=O)NCCS(N)(=O)=O)c2)nc(C(F)(F)F)c1 [Compound 1-34, 3-((4-(Aminomethyl)-6-(trifluoromethyl)pyridin-2-yl)oxy)-N-(2-sulfamoylethyl)benzamide hydrochloride]		
< 300	C#C[C@H](CC(=O)OC)NC(=O)c1cccc(Oc2cc(CN)cc(C(F)(F)F)n2)c1 [Compound 1-220, Methyl (S)-3-(3-((4-(aminomethyl)-6-(trifluoromethyl)pyridin-2-yl)oxy)benzamido)pent-4-ynoate]		
< 300	CC1(O)CCN(C(=O)c2cccc(Oc3cc(CN)cc(C(F)(F)F)n3)c2)CC1 [Compound 1-205, (3-((4-(Aminomethyl)-6-(trifluoromethyl)pyridin-2-yl)oxy)phenyl)(4-hydroxy-4-methylpiperidin-1-yl)methanone hydrochloride]		
< 300	C#Cc1cccc(NC(=O)c2cccc(Oc3cc(CN)cc(C(F)(F)F)n3)c2)c1 [Compound 1-247, 3-((4-(Aminomethyl)-6-(trifluoromethyl)pyridin-2-yl)oxy)-N-(3-ethynylphenyl)benzamide hydrochloride]		
< 300	C#CCNC(=O)c1cccc(Oc2cc(CN)cc(C(F)(F)F)n2)c1 [Compound 1-248, 3-((4-(Aminomethyl)-6-(trifluoromethyl)pyridin-2-yl)oxy)-N-(prop-2-yn-1-yl)benzamide hydrochloride]		
